Literature values as cited in US20250049738A1, “METHOD OF TREATMENT AND SELECTION OF PATIENTS BENEFITING FROM AGOMELATINE BASED ON EEG MEASUREMENTS” (Alto Neuroscience, Inc., priority 2023, published 2025).

Columns and labels:
circadian rhythm = conditions: in vivo; cited from earlier work
depression = conditions: in vivo; cited from earlier work

## COc1ccc2[nH]cc(CCNC(C)=O)c2c1 [melatonin]
Circadian rhythm
  effect on circadian rhythm: phase advance circadian rhythm
depression
  antidepressant efficacy: not an effective antidepressant
